Laboratory results from patent publication US20240239755A1, “SUBSTITUTED PYRIDAZINONES, SALTS OR N-OXIDES THEREOF AND THEIR USE AS HERBICIDALLY ACTIVE SUBSTANCES” (Bayer Aktiengesellschaft, priority 2021, published 2024).

Experiments:
Assay type in all cases: in vivo
Stellaria media (STEME) [1] = assay: Herbicidal post-emergence action, 1280 g/ha (Table B9); settings: visual assessment after ca. 3 weeks vs untreated controls
Summary of the method: (§1)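 Foliar application to single-leaf weeds in sandy loam; percent kill judged visually ca. 3 weeks later relative to untreated plants.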

Stellaria media (STEME) [2] = assay: Herbicidal post-emergence action, 320 g/ha, STEME; settings: visual grading after ca. 3 weeks
Summary of the method: (§2)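 Weeds grown in sandy loam were sprayed post-emergence at the single-leaf stage, 2–3 weeks after sowing. Compounds were formulated as WP or EC with 0.5% additive and applied at 320 g/ha in 600 L water/ha. After ~3 weeks in the greenhouse, damage was scored visually as % versus untreated controls (100% = dead).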

[3] = system: Amaranthus retroflexus (AMARE); assay: Herbicidal pre-emergence action, 1280 g/ha (Table A11); settings: visual grading after ca. 3 weeks vs untreated controls
Summary of the method: (§3)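 Compounds were formulated as WP or EC and sprayed onto the covering soil of freshly sown pots (sandy loam) in 600 L water/ha with 0.5% additive. Pots were kept in a greenhouse, and damage was scored visually after ca. 3 weeks as % effect versus untreated controls (100% = dead).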

Stellaria media (STEME) [4] = assay: Herbicidal pre-emergence action, 1280 g/ha (Table A9); settings: visual grading after ca. 3 weeks vs untreated controls
Summary of the method: as §3

[5] = system: Abutilon theophrasti (ABUTH); assay: Herbicidal post-emergence action, 320 g/ha, ABUTH; settings: visual grading after ca. 3 weeks
Summary of the method: as §2

Kochia scoparia (KCHSC) [6] = assay: Herbicidal pre-emergence action, 1280 g/ha (Table A4); settings: visual grading after ca. 3 weeks vs untreated controls
Summary of the method: as §3

[7] = system: Matricaria inodora (MATIN); assay: Herbicidal pre-emergence action, 1280 g/ha (Table A6); settings: visual grading after ca. 3 weeks vs untreated controls
Summary of the method: as §3

[8] = system: Matricaria inodora (MATIN); assay: Herbicidal post-emergence action, 1280 g/ha (Table B6); settings: visual assessment after ca. 3 weeks vs untreated controls
Summary of the method: as §1

Veronica persica (VERPE) [9] = assay: Herbicidal post-emergence action, 320 g/ha, VERPE; settings: visual grading after ca. 3 weeks
Excerpt: (§4) Seeds of mono- and dicotyledonous weed plants were sown in plastic pots (double sowings with one species of mono- and one species of dicotyledonous weed plants per pot), in sandy loam, covered with soil and grown under controlled growth conditions. 2 to 3 weeks after sowing, the test plants were sprayed in the single-leaf stage. The compounds according to the invention, formulated in the form of wettable powders (WP) or as emulsifiable concentrates (EC), were sprayed onto the green plant parts as an aqueous suspension or as an emulsion, with the addition of 0.5% of an additive, at an application rate of 600 litres of water per hectare (converted). The test plants were placed in the greenhouse for ca. 3 weeks under optimum growth conditions, and then the effect of the preparations was assessed visually in comparison with untreated controls (herbicidal effect in percent (%): 100% effect=plants have died, 0% effect=as control plants).
Tables D1 to D8 below, show the effects of selected compounds of the general formula (I) according to Table 1 on various harmful plants using an application rate corresponding to 320 g/ha obtained by the experimental procedure mentioned above.

[10] = system: Amaranthus retroflexus (AMARE); assay: Herbicidal post-emergence action, 1280 g/ha, AMARE; settings: visual grading vs untreated controls
Summary of the method: (§5)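 Visual rating ~3 weeks after treatment: 0% equals untreated control, 100% means plants died. Treatment was a 1280 g/ha foliar spray (600 L water/ha, 0.5% additive, WP or EC formulation) applied to single-leaf-stage plants grown 2–3 weeks in sandy loam under controlled conditions.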

Veronica persica (VERPE) [11] = assay: Herbicidal post-emergence action, 1280 g/ha, VERPE; settings: visual grading vs untreated controls
Summary of the method: as §5

Setaria viridis (SETVI) [12] = assay: Herbicidal pre-emergence action, 1280 g/ha (Table A8); settings: visual grading after ca. 3 weeks vs untreated controls
Excerpt: (§6) Seeds of mono- and dicotyledonous weed plants were sown in plastic pots (double sowings with one species of mono- and one species of dicotyledonous weed plants per pot), in sandy loam, and covered with soil. The compounds according to the invention, formulated in the form of wettable powders (WP) or as emulsifiable concentrates (EC), were applied to the surface of the covering soil as an aqueous suspension or as an emulsion, with the addition of 0.5% of an additive, at an application rate of 600 litres of water per hectare (converted). Following treatment, the pots were placed in a greenhouse and kept under optimum growth conditions for the test plants. The visual grading of the damage to the test plants was carried out after ca. 3 weeks in comparison to untreated controls (herbicidal effect in percent (%): 100% effect=plants have died, 0% effect=as control plants). Tables A1 to A11 below, show the effects of selected compounds of the general formula (I) according to Table 1 on various harmful plants and an application rate corresponding to 1280 g/ha obtained by the experimental procedure mentioned above.

[13] = system: Amaranthus retroflexus (AMARE); assay: Herbicidal post-emergence action, 320 g/ha, AMARE; settings: visual grading after ca. 3 weeks
Summary of the method: as §2

[14] = system: Abutilon theophrasti (ABUTH); assay: Herbicidal post-emergence action, 1280 g/ha (Table B1); settings: visual assessment after ca. 3 weeks vs untreated controls
Summary of the method: as §1

Lolium rigidum (LOLRI) [15] = assay: Herbicidal pre-emergence action, 1280 g/ha (Table A5); settings: visual grading after ca. 3 weeks vs untreated controls
Summary of the method: as §3

Lolium rigidum (LOLRI) [16] = assay: Herbicidal pre-emergence action, 320 g/ha (Table C2); settings: visual grading after ca. 3 weeks vs untreated controls
Excerpt: as §6, with “Tables C1” for “Tables A1”, “to C6” for “to A11”, “plants using” for “plants and”, “to 320” for “to 1280”

Lolium rigidum (LOLRI) [17] = assay: Herbicidal post-emergence action, 1280 g/ha (Table B5); settings: visual assessment after ca. 3 weeks vs untreated controls
Summary of the method: as §1

Kochia scoparia (KCHSC) [18] = assay: Herbicidal post-emergence action, 1280 g/ha (Table B4); settings: visual assessment after ca. 3 weeks vs untreated controls
Summary of the method: as §1

Stellaria media (STEME) [19] = assay: Herbicidal pre-emergence action, 320 g/ha, STEME; settings: visual grading after ca. 3 weeks
Summary of the method: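 Percent herbicidal effect, graded by eye about 3 weeks after treatment relative to untreated pots (0% matching controls, 100% dead plants). Application of 320 g/ha onto soil covering freshly sown seeds, as aqueous suspension or emulsion plus 0.5% additive at 600 L/ha; pots kept in greenhouse.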

[20] = system: Echinochloa crus-galli (ECHCG); assay: Herbicidal post-emergence action, 1280 g/ha (Table B3); settings: visual assessment after ca. 3 weeks vs untreated controls
Excerpt: as §4, with “plants). Tables B1 to B11 below, show the effects of selected compounds of the general formula (I) according to Table 1 on various harmful plants using an application rate corresponding to 1280 g/ha obtained by the experimental procedure mentioned above.” for “plants).”

Poa annua (POAAN) = assay: Herbicidal pre-emergence action, 1280 g/ha (Table A7); settings: visual grading after ca. 3 weeks vs untreated controls
Excerpt: as §6

Setaria viridis (SETVI) [21] = assay: Herbicidal post-emergence action, 1280 g/ha (Table B8); settings: visual assessment after ca. 3 weeks vs untreated controls
Excerpt: as §4, with “plants). Tables B1 to B11 below, show the effects of selected compounds of the general formula (I) according to Table 1 on various harmful plants using an application rate corresponding to 1280 g/ha obtained by the experimental procedure mentioned above.” for “plants).”

[22] = system: Abutilon theophrasti (ABUTH); assay: Herbicidal pre-emergence action, 1280 g/ha (Table A1); settings: visual grading after ca. 3 weeks vs untreated controls
Summary of the method: as §3

| Compound | herbicidal effect STEME (Stellaria media (STEME) [1]) | herbicidal effect STEME (Stellaria media (STEME) [2]) | herbicidal effect AMARE [3] | herbicidal effect STEME (Stellaria media (STEME) [4]) | herbicidal effect ABUTH [5] | herbicidal effect KCHSC (Kochia scoparia (KCHSC) [6]) | herbicidal effect MATIN [7] | herbicidal effect MATIN [8] | herbicidal effect AMARE [10] | herbicidal effect VERPE (Veronica persica (VERPE) [11]) | herbicidal effect AMARE [13] | herbicidal effect ABUTH [14] | herbicidal effect LOLRI (Lolium rigidum (LOLRI) [15]) | herbicidal effect LOLRI (Lolium rigidum (LOLRI) [16]) | herbicidal effect LOLRI (Lolium rigidum (LOLRI) [17]) | herbicidal effect KCHSC (Kochia scoparia (KCHSC) [18]) | herbicidal effect ECHCG [20] | further results |
| --- | --- | --- | --- | --- | --- | --- | --- | --- | --- | --- | --- | --- | --- | --- | --- | --- | --- | --- |
| Cc1nn(C)c(=O)c(Oc2cc(F)c(F)cc2C2CC2)c1O [Example I-101] | 100% | 90% | 100% | 100% | 90% | 100% | 100% | 90% | 100% | 100% | 90% | 100% | 100% | 90% | 90% | 90% | – | herbicidal effect VERPE (Veronica persica (VERPE) [9]): 90%; herbicidal effect SETVI (Setaria viridis (SETVI) [12]): 90% |
| Cc1nn(C)c(=O)c(Oc2ccccc2C(C)C)c1O [Example I-022] | 100% | 90% | 90% | 100% | 90% | 90% | 90% | 90% | 90% | – | 90% | 100% | 100% | 100% | 90% | – | 90% | herbicidal effect STEME (Stellaria media (STEME) [19]): 100%; herbicidal effect POAAN (Poa annua (POAAN)): 90% |
| CCOC(=O)Oc1c(C)nn(C)c(=O)c1Oc1cc(F)ccc1Br [Example I-088] | 90% | – | 100% | 90% | – | – | 100% | 90% | 100% | – | 90% | – | 100% | 90% | 90% | – | – | herbicidal effect SETVI (Setaria viridis (SETVI) [21]): 90% |
| CC(=O)Oc1c(C)nn(C)c(=O)c1Oc1ccccc1OC(F)(F)F [Example I-029] | 100% | 90% | 100% | 100% | 90% | 90% | 100% | 90% | 90% | 90% | 90% | 100% | 100% | 90% | 90% | 90% | 90% | herbicidal effect ABUTH [22]: 90% |
